Assay results from PMC2113498 (The Journal of Cell Biology, 1985).

Key:
[1] = test system: a-toxin binding to the receptor, extracted membranes; assay: Inhibition of a-toxin labeling of membranes; set-up: species or system Torpedo californica; conditions: 10 mM carbamylcholine added to the solutions of the toxin; Fig. 6H
mab 274D / AChR = assay: Inhibition of binding of mab 274D to AChR by peptides; set-up: species or system Torpedo nobiliana; conditions: ELISA; tested at concentrations exceeding 36 uM
mab 264E / AChR = assay: Inhibition of binding of mab 264E to AChR by peptides; set-up: species or system Torpedo nobiliana; conditions: ELISA; tested at concentrations exceeding 36 uM

Row | Molecule | labeling of a-toxin sites in presence of competitor [1] | inhibition of binding of mab 274D to AChR (mab 274D / AChR) | inhibition of binding of mab 264E to AChR (mab 264E / AChR)
1 | C[N+](C)(C)CCOC(N)=O.[Cl-] [carbamylcholine] | substantially reduced the labeling | – | –
2 | Ac-PFEGDPFDYSSDHPRG-OH [Delta-peptide 485-499] | – | failed to inhibit the binding of either mab | failed to inhibit the binding of either mab
